PubChem BioAssay AID1963964 (Molecular Pharmacology Branch, DTP, NCI, 2024)
pIC50: −log10 of the molar value.

Test system: 997726-040-R-J2-PDC tumor spheroids, viability
Test: Anticancer human tumor 997726-040-R-J2-PDC patient-derived squamous cell lung carcinoma cell line growth inhibition [PI3K]
Conditions: spheroids with HUVEC and MSC; for pIC50: curve of first compound; for viability, T/C: stronger effect = lower value
In short: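 Targeted small molecules plus PI3K inhibitors, half-log dose series from Cmax (default top 10 microM), were applied to heterotypic spheroids of cancer cells with HUVEC and MSCs. Viability indicated growth inhibition.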
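Note: spheroids exposed to compounds for seven days before readout.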

## Cn1ncnc1[C@H]1c2n[nH]c(=O)c3cc(F)cc(c23)N[C@@H]1c1ccc(F)cc1 + CC(Nc1ccc2c(c1)OCCn1cc(N3C(=O)OCC3C(F)F)nc1-2)C(N)=O
Second compound 0.00316 µM
  pIC50: < 7.00
Second compound 0.01 µM
  pIC50: < 7.00
Second compound 0.0316 µM
  pIC50: < 7.00
Second compound 0.1 µM
  pIC50: > 9.50
Second compound 0.316 µM
  pIC50: > 9.50
Second compound 1 µM
  pIC50: > 9.50
Second compound 0.00316 µM, first compound 0.000316 µM
  viability, T/C: 84.4%
Second compound 0.00316 µM, first compound 0.001 µM
  viability, T/C: 99.1%
Second compound 0.00316 µM, first compound 0.00316 µM
  viability, T/C: 95.7%
Second compound 0.00316 µM, first compound 0.01 µM
  viability, T/C: 87.5%
Second compound 0.00316 µM, first compound 0.0316 µM
  viability, T/C: 99.7%
Second compound 0.00316 µM, first compound 0.1 µM
  viability, T/C: 89.7%
Second compound 0.01 µM, first compound 0.000316 µM
  viability, T/C: 89.6%
Second compound 0.01 µM, first compound 0.001 µM
  viability, T/C: 92.4%
Second compound 0.01 µM, first compound 0.00316 µM
  viability, T/C: 75.9%
Second compound 0.01 µM, first compound 0.01 µM
  viability, T/C: 71.4%
Second compound 0.01 µM, first compound 0.0316 µM
  viability, T/C: 84.3%
Second compound 0.01 µM, first compound 0.1 µM
  viability, T/C: 75.6%
Second compound 0.0316 µM, first compound 0.000316 µM
  viability, T/C: 63.2%
Second compound 0.0316 µM, first compound 0.001 µM
  viability, T/C: 72.9%
Second compound 0.0316 µM, first compound 0.00316 µM
  viability, T/C: 66.2%
Second compound 0.0316 µM, first compound 0.01 µM
  viability, T/C: 71.5%
Second compound 0.0316 µM, first compound 0.0316 µM
  viability, T/C: 70.2%
Second compound 0.0316 µM, first compound 0.1 µM
  viability, T/C: 60.2%
Second compound 0.1 µM, first compound 0.000316 µM
  viability, T/C: 49.4%
Second compound 0.1 µM, first compound 0.001 µM
  viability, T/C: 39.8%
Second compound 0.1 µM, first compound 0.00316 µM
  viability, T/C: 43.6%
Second compound 0.1 µM, first compound 0.01 µM
  viability, T/C: 45.4%
Second compound 0.1 µM, first compound 0.0316 µM
  viability, T/C: 41.8%
Second compound 0.1 µM, first compound 0.1 µM
  viability, T/C: 39%
Second compound 0.316 µM, first compound 0.000316 µM
  viability, T/C: 31.2%
Second compound 0.316 µM, first compound 0.001 µM
  viability, T/C: 36%
Second compound 0.316 µM, first compound 0.00316 µM
  viability, T/C: 32.4%
Second compound 0.316 µM, first compound 0.01 µM
  viability, T/C: 32.4%
Second compound 0.316 µM, first compound 0.0316 µM
  viability, T/C: 33.4%
Second compound 0.316 µM, first compound 0.1 µM
  viability, T/C: 30.9%
Second compound 1 µM, first compound 0.000316 µM
  viability, T/C: 27.5%
Second compound 1 µM, first compound 0.001 µM
  viability, T/C: 26.7%
Second compound 1 µM, first compound 0.00316 µM
  viability, T/C: 26.6%
Second compound 1 µM, first compound 0.01 µM
  viability, T/C: 28.9%
Second compound 1 µM, first compound 0.0316 µM
  viability, T/C: 31.1%
Second compound 1 µM, first compound 0.1 µM
  viability, T/C: 28.8%
